Measurements reported in article PMC3493272, “CYP98A22, a phenolic ester 3’-hydroxylase specialized in the synthesis of chlorogenic acid, as a new tool for enhancing the furanocoumarin concentration in Ruta graveolens” (BMC Plant Biology, 2012).

Experiments:
Type in all cases: biochemical
CYP98A22 [1] = target: T1, CYP98A22 (Ruta graveolens, UniProt H9LJF9); assay: LC-MS of caffeoyl quinate formed by plant microsomes; conditions: 0.2 mM NADPH; 20 mM phosphate pH 7.0; 28 °C; 30 min; microsomes from N. benthamiana expressing the enzyme
T1 construct: full-length, 508 residues, untagged; transient expression in Nicotiana benthamiana leaves with TBSV P19, leaf microsomes
From the text: LC-MS of caffeoyl quinate formed by plant microsomes on CYP98A22

CYP98A3 [2] = target: T2, CYP98A3 (Arabidopsis thaliana, UniProt O22203); assay: HPLC and LC-MS of caffeoyl quinate formed by plant microsomes; conditions: 100 μM substrate; 0.2 mM NADPH; pH 7.0; 28 °C; microsomes from N. benthamiana expressing the enzyme
T2 construct: full-length, untagged; transient expression in Nicotiana benthamiana leaves with TBSV P19, leaf microsomes (also yeast WAT11 microsomes)
T2 sequence (O22203 1-508): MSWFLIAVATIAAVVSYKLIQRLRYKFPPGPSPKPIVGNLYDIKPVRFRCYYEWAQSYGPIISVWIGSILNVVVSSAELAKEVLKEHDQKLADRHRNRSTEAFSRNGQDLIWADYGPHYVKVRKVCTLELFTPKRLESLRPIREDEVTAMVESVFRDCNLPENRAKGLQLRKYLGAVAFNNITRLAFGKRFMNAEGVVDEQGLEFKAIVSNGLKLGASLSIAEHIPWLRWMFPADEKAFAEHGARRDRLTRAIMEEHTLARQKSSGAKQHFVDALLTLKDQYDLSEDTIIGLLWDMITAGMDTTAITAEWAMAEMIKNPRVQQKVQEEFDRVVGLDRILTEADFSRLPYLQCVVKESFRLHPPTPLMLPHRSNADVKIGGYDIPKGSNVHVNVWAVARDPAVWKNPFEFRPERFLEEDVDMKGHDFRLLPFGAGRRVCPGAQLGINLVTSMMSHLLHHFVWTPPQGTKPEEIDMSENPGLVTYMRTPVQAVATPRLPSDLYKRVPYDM

CYP98A3 [3] = target: T2, CYP98A3; assay: HPLC and LC-MS of caffeoyl shikimate formed by plant microsomes; conditions: 100 μM substrate; 0.2 mM NADPH; pH 7.0; 28 °C; microsomes from N. benthamiana expressing the enzyme
CYP98A22 [4] = target: T1, CYP98A22; assay: LC-MS of caffeoyl shikimate formed by plant microsomes; conditions: 0.2 mM NADPH; 20 mM phosphate pH 7.0; 28 °C; 30 min; microsomes from N. benthamiana expressing the enzyme
From the text: LC-MS of caffeoyl shikimate formed by plant microsomes on CYP98A22

T1 sequence (H9LJF9 entry or part of it): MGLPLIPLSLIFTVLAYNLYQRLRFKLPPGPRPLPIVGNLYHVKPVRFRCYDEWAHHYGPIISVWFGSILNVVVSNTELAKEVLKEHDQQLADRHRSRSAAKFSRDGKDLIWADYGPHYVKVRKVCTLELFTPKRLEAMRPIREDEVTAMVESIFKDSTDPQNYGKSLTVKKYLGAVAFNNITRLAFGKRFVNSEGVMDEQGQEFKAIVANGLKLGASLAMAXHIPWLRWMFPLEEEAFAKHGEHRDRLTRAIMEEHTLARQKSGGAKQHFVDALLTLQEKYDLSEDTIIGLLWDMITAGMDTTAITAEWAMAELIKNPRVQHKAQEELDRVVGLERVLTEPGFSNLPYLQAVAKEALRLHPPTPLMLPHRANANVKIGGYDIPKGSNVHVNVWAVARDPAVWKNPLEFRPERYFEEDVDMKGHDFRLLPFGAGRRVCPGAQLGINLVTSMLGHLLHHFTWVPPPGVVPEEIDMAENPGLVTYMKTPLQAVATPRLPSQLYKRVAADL

Km (CYP98A22 [1]) | Km (CYP98A22 [4]) | Structure (SMILES) | HPLC and LC-MS of caffeoyl quinate formed by plant microsomes (CYP98A3 [2]) | HPLC and LC-MS of caffeoyl shikimate formed by plant microsomes (CYP98A3 [3])
7 ± 5 µM | – | O=C(/C=C/c1ccc(O)cc1)O[C@@H]1C[C@](O)(C(=O)O)C[C@@H](O)[C@H]1O [p-coumaroyl quinate] | both p-coumaroyl quinate and p-coumaroyl shikimate were hydroxylated to their caffeic counterparts | –
– | 24 ± 7 µM | O=C(/C=C/c1ccc(O)cc1)O[C@@H]1CC(C(=O)O)=C[C@@H](O)[C@H]1O [p-coumaroyl shikimate] | – | both p-coumaroyl quinate and p-coumaroyl shikimate were hydroxylated to their caffeic counterparts
